According to patent publication US8937066B2, “Amino derivatives of dihydro-1,3,5-triazine used in the treatment of ischemia and/or reperfusion related diseases” (Poxel, priority 2009, dated 2015):

Legend:
[1] = tested on: infarct size / area at risk; test: Model of myocardial infarction in the rabbit (30 min coronary occlusion, 4 h reperfusion); assay type: in vivo; conditions: for AN (area of necrosis) / AN/AR / AN/LV: group mean (extent of values)
Method: Male New Zealand albino rabbits weighing between 2.2 and 2.5 kg were anesthetized by intramuscular injection of xylazine (5 mg/kg) and ketamine (50 mg/kg). An intravenous infusion of a mixture of xylazine (20 to 50 μg/kg/min) and ketamine (40 to 100 μg/kg/min) was maintained throughout the test.
After a median cervical incision, a tracheotomy was performed and the animals were ventilated with ambient air. A cannula was inserted in the right internal jugular vein for administration of the medicinal products and fluids and in the left carotid artery for measurement of blood pressure. After an intravenous bolus administration of fentanyl ([…]), a left thoracotomy was performed at the level of the fourth left intercostal space. The pericardium was opened and the heart was exposed. A 3.0 suture thread attached to a small curved needle was passed around a marginal branch of the left circumflex coronary artery. The two ends of the thread were passed through a small vinyl tube to form a collar that could be tightened for occluding and released for reperfusing the artery. Body temperature was monitored via an intraperitoneal thermometer and kept constant by means of a heating block. The heart rate and arterial pressure were monitored continuously on a Gould recorder (Gould Inc., Cleveland, Ohio).
After surgery, a period of stabilization of 15 minutes was observed.
The rabbits are randomly distributed into 4 groups. All the animals undergo a prolonged occlusion of 30 minutes of the coronary artery, followed by 4 hours of reperfusion. Five minutes before reperfusion, the rabbits receive an intravenous injection of either: • a vehicle (volume corresponding to dose 1 or 2 of E 008) (Control, C), • E 008 at dose 1, • E 008 at dose 2, • of ciclosporin A (CsA) at 10 mg/kg.
The sample size is 8 to 10 animals per group. In these groups, the hearts were collected at the end of the period of 4 hours of reperfusion for subsequent evaluation of infarct size.
After 4 hours of reperfusion, the coronary artery was briefly reoccluded and 0.5 mg/kg of Uniperse blue pigment (Ciba-Geigy®, Hawthorne N.Y.) was injected intravenously for delimiting the area at risk in viva With this technique, the previously nonischemic myocardium appears blue, whereas the previously ischemic myocardium (area at risk) remains unstained.
The anesthetized rabbits were then euthanized by intravenous injection of pentobarbital. The heart was excised and cut into transverse slices with thickness of 5 to 6 mm, parallel to the atrioventricular sulcus. After removing the tissue of the right ventricle, each slice was weighed. The basal surface of each slice was photographed for later measurement of the area at risk. Each slice was then incubated for 15 minutes in a 1% solution of triphenyltetrazolium chloride at 37° C. for differentiating the myocardial zones that were infarcted (pale) and viable (brick red). The slices were then photographed again. Magnified projections of these slices were traced for determining the boundaries of the area at risk (AR) and of the area of necrosis (AN). The extent of these areas at risk and of necrosis was quantified by planimetry by computer and corrected relative to the weight of the tissue slices. The total weights of the area at risk and of the area of necrosis were then calculated and expressed in grams and as a percentage of total left ventricle (LV) and of the weight of the area at risk, respectively. […] Evaluation of infarct size was performed blind.
The results are presented in the following table in the form of value averaged for all the animals of a group, the figure in parentheses representing the extent of the values measured for the different animals.

[2] = tested on: complex I of the respiratory chain of endothelial cells; test: ROS production by complex I of the respiratory chain; assay type: cell-based; conditions: by inhibiting reverse electron flow
[3] = tested on: human immortalized microvascular dermal endothelial cells HMEC-1; test: Mitochondrial membrane potential (TMRM, confocal microscopy) after ischemia/reperfusion; assay type: cell-based; conditions: 10 mM for 30 min; for mitochondrial membrane potential after reperfusion: then 60 min ischemia and 90/120 min reperfusion
Method: The objective of this study is to evaluate the protective effect of the compound E 008 on vascular injury due to ischemia/reperfusion, by measuring the effect of E 008 on loss of mitochondrial membrane potential induced by ischemia/reperfusion.
The line of human immortalized microvascular dermal endothelial cells HMEC-1 was used.
The cells were treated according to the following scheme: • control group: no treatment, followed by ischemia of 60 min and reperfusion of 120 min. • metformin group: incubation with metformin at a concentration of 10 mM for 30 min, followed by ischemia of 60 min and reperfusion of 120 min. • E 008 group: incubation with the compound E 008 at a concentration of 10 mM for 30 min followed by ischemia of 60 min and reperfusion of 120 min. Measurement of Mitochondrial Membrane Potential
In order to measure the mitochondrial potential, the cells were incubated, throughout the above treatment, with the fluorescent probe tetramethylrhodamine methyl ester (TMRM) at a concentration of 30 nM.
They were analyzed in confocal microscopy before treatment, after 60 min of ischemia, after 90 min of reperfusion and after 120 min of reperfusion (FIG. 1).

[4] = E 008 1 mg/kg i.v. 5 min before reperfusion
[5] = E 008 5 mg/kg i.v. 5 min before reperfusion

SMILES | AN (area of necrosis) [1, 4] | AN/AR [1, 4] | AN/LV [1, 4] | protection in the model of myocardial infarction ([1]; E 008 5 mg/kg i.v.) | AN (area of necrosis) [1, 5] | AN/AR [1, 5] | AN/LV [1, 5] | infarct size relative to ciclosporin A ([1]; E 008 5 mg/kg i.v. vs CsA 10 mg/kg) | infarct size relative to the control ([1]; i.v. 5 min before reperfusion, dose not given) | production of ROS by complex I of the respiratory chain [2] | mitochondrial membrane potential after reperfusion [3] | protective effect against loss of membrane potential compared with metformin ([3]; then 60 min ischemia and 120 min reperfusion)
CC1N=C(N)NC(N(C)C)=N1 (stereo not shown) [E 008] | 0.31 (±0.15) g | 33.9 (±12.2) % | 11.8 (±5) % | significant protection | 0.21 (±0.09) g | 29.4 (±10.3) % | 8.3 (±3.7) % | reduction in infarct size relative to ciclosporin A | significant reduction in infarct size | reduce the production of ROS | protected from the damage due to reperfusion | better protective effect
CN(C)C(=N)N=C(N)N [metformin, reference compound] | – | – | – | – | – | – | – | – | – | – | protected from the damage due to reperfusion | –
